# Data reported in US9573972B2, “Nurotoxic sterol glycosides” (priority 2008, dated 2017).
# Entries after “also recorded” stand apart in the source; their conditions may differ. Marks after values point to notes of the source that are not given here.
# Experiments:
# Assay type in all cases: in vivo, mouse
# [1] = Body weights of SG-fed mice; details: SG-fed vs age-matched controls; SG 1000 μg per pellet daily for 15 weeks
# Text: (§1) Five-month old male CD-1 mice (30.1-35.7 g, 7.5 cm-8.8 cm) were purchased from Charles River (Wilmington, Mass.). Adult mice were chosen to mimic the mean age of onset of ALS-PDC (Kurland, L. T. (1988a) Trends Neurosci. 11, 51-4; Kurland, L. T., et al. (1994) Amyotrophic lateral sclerosis-parkinsonism-dementia complex on Guam: epidemiologic and etiological perspectives. 109-131). Thirty mice for the SG study were randomly divided into 2 groups (14 control and 16 experimental animals). All animals were housed singly in a virus-free barrier facility in a room maintained at 22° C. under a 12 hour light/dark cycle. The mice were provided ad libitum access to food and water.
# The synthetic SG was mixed with finely ground Purina Chow mouse pellets (Mouse Diet™, Purina) to create the experimental pellets with a SG content of 1000 μg per pellet. Dry materials were blended with a sterile silicon spatula. For every 5 g of standard feed, 2.5 mL of doubly-distilled water (dd)H2O was added and the dough was kneaded and round up into pellets. A single sterol glucoside containing pellet was placed in the feeding tray each morning before the addition of regular mouse chow (ad libitum). All experimental pellets were entirely consumed by the mice each day. […] SG feeding was conducted daily for 15 weeks and mice were behaviorally monitored until sacrifice at 35 weeks (time point 1) or 52 weeks (time point 2).
# male CD-1 mice = test: Wire hang test, SG-fed mice
# Text: as §1
# The synthetic SG was mixed with finely ground Purina Chow mouse pellets (Mouse Diet™, Purina) to create the experimental pellets with a SG content of 1000 μg per pellet. Dry materials were blended with a sterile silicon spatula. For every 5 g of standard feed, 2.5 mL of doubly-distilled water (dd)H2O was added and the dough was kneaded and round up into pellets. A single sterol glucoside containing pellet was placed in the feeding tray each morning before the addition of regular mouse chow (ad libitum). All experimental pellets were entirely consumed by the mice each day. Control mice were fed standard mouse chow pellets of identical weight with no additives. SG feeding was conducted daily for 15 weeks and mice were behaviorally monitored until sacrifice at 35 weeks (time point 1) or 52 weeks (time point 2).
# Wire hang: Neuromuscular strength was tested by the wire hang (or hanging wire) test (Wilson, J., et al. (2003d) Neuromolecular Med. 3, 105-18; Wilson, J. M., et al. (2004c) Neuroimage. 23, 336-43; Wilson, J. M., et al. (2005) Soc Neurosci. Abstr. online; Tabata, R. C., et al. (2008) Neuromolecular Med. 10, 24-39). Both balance and grip strength are required for a mouse to keep its body suspended (Crawley, 2000). […] The latency to fall off the wire (maximum 60 seconds) (Sango et al., 1996) was measured from the moment the wire apparatus was inverted (180°). […]
# [2] = tested on: choline acetyl transferase (ChAT) immunoreactive cells; test: Anti-ChAT immunofluorescence, cholinergic neuron counts; details: for Fewer cholinergic neurons than control: SG-fed; for Cholinergic neurons, change: ventral horn lumbar spinal cord, SG-fed vs control
# Experimental: (§2) Tissue-mounted slides were processed for fluorescence microscopy as follows: Sections were rinsed in coplin jars for 45 minutes at room temperature (RT) in three changes of PBS. Sections were then incubated at RT for 30 minutes in a blocking permeabilization solution made of 5% normal goat serum (NGS), 5% normal rabbit serum (NRS) or 5% BlokHen II (Ayes Labs, Inc., Tigard, Oreg.), 0.05% Triton X-100 and PBS. Subsequently, the blocking solution was tipped off and the slides were rinsed in PBS for 2 minutes. Sections were then incubated overnight in a humidified chamber at 4° C. with a PBS buffered solution that contained 1% NGS or 1% NRS, 1% bovine serum albumin (BSA) and one of the following primary antibodies: (a) rabbit anti-human/mouse ATF-3 (H-90) IgG (polyclonal, 1:500; Santa Cruz Biotechnology, Inc., Santa Cruz, Calif.), (b) anti-activated caspase-3 IgG (monoclonal, 1:250; Chemicon International, Temecula, Calif.) (see FIG. 9), (c) goat antihuman/mouse choline acetyl transferase (ChAT) IgG (polyclonal, 1:100; Chemicon International, Temecula, Calif.) (see FIG. 6), (d) rabbit anti-mouse glial fibrillary acidic protein IgG (polyclonal, 1:250; GeneTex Inc., San Antonio, Tex.) (see FIG. 7), (e) rabbit antihuman/mouse ionized calcium binding adaptor molecule 1 (IBA-1) IgG (polyclonal, 1:500; Wako Pure Chemical Industries, Ltd, Richmond, Va.), (f) mouse anti-human/mouse clone AT8 PHF-1 Tau (monoclonal, 1:200; Pierce Biotechnology Inc., Rockford, Ill.), (g) rabbit anti-human/mouse TAR DNA-binding protein 43 (TDP43) (1:100; ProteinTech Group Inc., Chicago, Ill.) (See FIG. 14), (h) chicken anti-human/mouse β-tubulin 3 (TuJ1 antigen) (polyclonal, 1:100, Ayes Labs, Inc., Tigard, Oreg.), (i) rabbit anti-mouse tyrosine hydroxylase (polyclonal, 1:500, Chemicon International, Temecula, Calif. or polyclonal 1:1000, Affinity BioReagents, Golden, Colo.) (FIG. 10), (j) rabbit anti human/mouse anti-pJunscr73 IgG (polyclonal, 1:200; Chemicon International, Temecula, Calif.), (k) rabbit anti human/mouse anti-HSP-70 IgG (polyclonal, 1:200; Chemicon International, Temecula, Calif.), or (1) rabbit anti human/mouse anti-HSP-25 IgG (polyclonal, 1:100; Chemicon International, Temecula, Calif.). In each experiment, additional slides were incubated with the primary antibody and the secondary antibody omitted or with secondary antibody and primary antibody omitted to test for nonspecific staining. Where appropriate, positive control slides (Alzheimer's disease patient entorhinal cortex, obtained from Drs. Claudia Schwab and Patrick McGeer of the Kinsmen Laboratory, University of British Columbia, Vancouver, BC, Canada) were also processed as above for comparison. […]
# Heat shock protein-70 = test: Anti-Hsp-70 immunofluorescence; details: for Anti-Hsp-70 (VHLsc), change: ventral horn lumbar spinal cord; for Anti-Hsp-70 (VHLsc), change / Anti-Hsp-70 (VHTsc): SG-fed vs control; for Anti-Hsp-70 (VHTsc): ventral horn thoracic spinal cord
# Experimental: as §2, with “comparison. Following overnight incubation with the primary antibody, slides were rinsed for 45 minutes at RT in three changes of PBS. Immediately after, the slides were incubated in black chambers that excluded light for 1 hour at RT with the secondary antibody solutions containing 5% NGS or 5% NRS and fluorophore conjugated antibodies: AlexaFluor 568 goat anti-rabbit or rabbit anti-goat IgG (monoclonal, 1:250, absorption: 578 nm, emission 603 nm; Molecular Probes, Eugene, Oreg.), AlexaFluor 546 goat antirabbit or rabbit anti-goat IgG (monoclonal; 1:250, absorption 556 nm, emission 573 nm; Molecular Probes, Eugene, Oreg.) or fluorescein isothiocyanate (FITC) goat anti-rabbit IgG (polyclonal, 1:500, absorption: 494 nm, emission: 518 nm; Sigma, Saint Louis, Mo.). The secondary antibody solution was tipped off and slides were rinsed for 15 minutes in three changes of PBS. Tissue sections were cover-slipped with a 4′6 diamidino-2-phenylindole (DAPI) fluorescent mounting media (Vectashield, absorption: 360 nm, emission: 460 nm, Vector Laboratories, Burlington, ON, Canada) in order to label the nuclei and stored at 4° C. in dark slide boxes to retard bleaching of the fluorescent labels.” for “comparison.”
# [3] = tested on: Ionized calcium-binding adaptor molecule-1 (microglia); test: Anti-IBA-1 immunofluorescence, microglia counts; details: SG-fed group over time (35 to 52 wk)
# Experimental: Tissue-mounted slides were processed for fluorescence microscopy as follows: Sections were rinsed in coplin jars for 45 minutes at room temperature (RT) in three changes of PBS. Sections were then incubated at RT for 30 minutes in a blocking permeabilization solution made of 5% normal goat serum (NGS), 5% normal rabbit serum (NRS) or 5% BlokHen II (Ayes Labs, Inc., Tigard, Oreg.), 0.05% Triton X-100 and PBS. Subsequently, the blocking solution was tipped off and the slides were rinsed in PBS for 2 minutes. […]
# [4] = SG-fed group over time (35 to 52 wk)
smiles,measurement,setting,value
"CC[C@H](/C=C/[C@@H](C)[C@H]1CC[C@H]2[C@@H]3CC=C4C[C@@H](O[C@@H]5O[C@H](CO)[C@@H](O)[C@H](O)[C@H]5O)CC[C@]4(C)[C@H]3CC[C@]12C)C(C)C [SG, Stigmasterol β-D-Glucopyranoside]",Body weights,[1],normal weight gain; also recorded: not significantly different
same,Increase in the time between inversion of the apparatus and falling,"male CD-1 mice; SG fed mice, control group showed an increase",did not
same,Wirehang,"male CD-1 mice; SG-fed vs control, Time-point 2 (52 wk)",Wirehang* (*p < 0.05)
same,Wirehang performance,"male CD-1 mice; SG-fed vs control, prior to 35 weeks",decline in performance
same,Fewer cholinergic neurons than control,[2]; 35 weeks,18%
same,Fewer cholinergic neurons than control,[2]; 52 weeks,32%
same,"Cholinergic neurons, change",[2]; Time-point 1 (35 wk),Cholinergic neurons (−18%)
same,"Cholinergic neurons, change",[2]; Time-point 2 (52 wk),Cholinergic neurons (−32%)
same,Anti-Hsp-70 Lsc over time,Heat shock protein-70; [4],"Anti-Hsp-70 Lsc (SG-fed group over time) (ns, p = 0.1223)"
same,Anti-Hsp-70 Tsc over time,Heat shock protein-70; [4],"Anti-Hsp-70 Tsc (SG-fed group over time) (ns, p = 0.8319)"
same,"Anti-Hsp-70 (VHLsc), change",Heat shock protein-70; Time-point 1 (35 wk),Anti-Hsp-70: +1036%***
same,"Anti-Hsp-70 (VHLsc), change",Heat shock protein-70; Time-point 2 (52 wk),Anti-Hsp-70: +425%*
same,Anti-Hsp-70 (VHTsc),Heat shock protein-70; Time-point 1 (35 wk),"Anti-Hsp-70: (ns, p = 0.9697)"
same,Anti-Hsp-70 (VHTsc),Heat shock protein-70; Time-point 2 (52 wk),"Anti-Hsp-70: (ns, p = 0.2793)"
same,Anti-IBA-1 immunoreactive cells over time,[3],Anti-IBA-1 immunoreactive cells (SG-fed group over time) (ns)
